Measured values: PubChem BioAssay AID328 (DTP/NCI, 2004)
Where “and” joins values, the source holds several entries; their conditions need not be identical. Identical values can stand only once. Toxic doses and inconclusive results are not listed.

Tested on: BDF1 mice, P388 leukemia ip, median survival T/C
Assay: NCI In Vivo Anticancer Drug Screen. Data for tumor model P388 Leukemia (intraperitoneal) in B6D2F1 (BDF1) mice
Settings: endpoint: median survival time, higher = longer survival
Summary of the method: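 Each value expresses how treatment altered survival: treated-mouse outcome over vehicle-mouse outcome, both groups bearing the transplanted tumour.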

**Q.** What does the source list for `CC(C)[C@](O)(C(=O)OCC1=CC[N+]2([O-])CC[C@@H](O)[C@@H]12)[C@H](C)O` (stereo partly drawn)?
**A.** T/C (dose: 6.2 mg/kg/injection, schedule: Q01DX009 (ip), vehicle: water): 113 % of control; T/C (dose: 8.0 mg/kg/injection, schedule: Q03HX024 (ip), vehicle: water): 100 % of control; T/C (dose: 16.0 mg/kg/injection, schedule: Q03HX008 (ip), vehicle: saline): 100 % of control; T/C (dose: 16.0 mg/kg/injection, schedule: Q03HX008 (ip), vehicle: water): 95 % of control; T/C (dose: 16.0 mg/kg/injection, schedule: Q03HX016 (ip), vehicle: saline): 90 % of control; T/C (dose: 16.0 mg/kg/injection, schedule: Q03HX016 (ip), vehicle: water): 100 % of control; T/C (dose: 16.0 mg/kg/injection, schedule: Q03HX024 (ip), vehicle: saline): 90 % of control; T/C (dose: 16.0 mg/kg/injection, schedule: Q03HX024 (ip), vehicle: water): 90 % of control; T/C (dose: 25.0 mg/kg/injection, schedule: Q01DX009 (ip), vehicle: saline): 110 % of control; T/C (dose: 25.0 mg/kg/injection, schedule: Q01DX009 (ip), vehicle: water): 118 % of control; T/C (dose: 32.0 mg/kg/injection, schedule: Q03HX008 (ip), vehicle: saline): 105 % of control; T/C (dose: 32.0 mg/kg/injection, schedule: Q03HX008 (ip), vehicle: water): 100 % of control; T/C (dose: 32.0 mg/kg/injection, schedule: Q03HX016 (ip), vehicle: saline): 100 % of control; T/C (dose: 32.0 mg/kg/injection, schedule: Q03HX016 (ip), vehicle: water): 100 % of control; T/C (dose: 32.0 mg/kg/injection, schedule: Q03HX024 (ip), vehicle: saline): 100 % of control; T/C (dose: 32.0 mg/kg/injection, schedule: Q03HX024 (ip), vehicle: water): 100 % of control; T/C (dose: 64.0 mg/kg/injection, schedule: Q01DX009 (ip), vehicle: saline): 105 % of control; T/C (dose: 64.0 mg/kg/injection, schedule: Q03HX008 (ip), vehicle: saline): 100 % of control; T/C (dose: 64.0 mg/kg/injection, schedule: Q03HX008 (ip), vehicle: water): 100 % of control; T/C (dose: 64.0 mg/kg/injection, schedule: Q03HX016 (ip), vehicle: saline): 105 % of control; T/C (dose: 64.0 mg/kg/injection, schedule: Q03HX016 (ip), vehicle: water): 100 % of control; T/C (dose: 64.0 mg/kg/injection, schedule: Q03HX024 (ip), vehicle: saline): 105 % of control; T/C (dose: 64.0 mg/kg/injection, schedule: Q03HX024 (ip), vehicle: water): 95 % of control; T/C (dose: 64.0 mg/kg/injection, schedule: Q04DX003 (ip), vehicle: water): 100 % of control; T/C (dose: 100.0 mg/kg/injection, schedule: Q04DX002 (ip), vehicle: saline): 108 % of control; T/C (dose: 128.0 mg/kg/injection, schedule: Q01DX001 (ip), vehicle: saline): 95 % of control; T/C (dose: 128.0 mg/kg/injection, schedule: Q01DX009 (ip), vehicle: saline): 89 % of control; T/C (dose: 128.0 mg/kg/injection, schedule: Q01DX009 (sc), vehicle: water): 95 % of control; T/C (dose: 128.0 mg/kg/injection, schedule: Q03HX008 (ip), vehicle: saline): 95 % of control; T/C (dose: 128.0 mg/kg/injection, schedule: Q03HX016 (ip), vehicle: saline): 100 % of control; T/C (dose: 128.0 mg/kg/injection, schedule: Q03HX016 (ip), vehicle: water): 100 % of control; T/C (dose: 128.0 mg/kg/injection, schedule: Q03HX024 (ip), vehicle: saline): 105 % of control; T/C (dose: 128.0 mg/kg/injection, schedule: Q03HX024 (ip), vehicle: water): 100 % of control; T/C (dose: 128.0 mg/kg/injection, schedule: Q04DX003 (ip), vehicle: saline): 95 % of control; T/C (dose: 128.0 mg/kg/injection, schedule: Q04DX003 (ip), vehicle: water): 100 % of control; T/C (dose: 128.0 mg/kg/injection, schedule: Q08DX002 (ip), vehicle: saline): 90 % of control; T/C (dose: 200.0 mg/kg/injection, schedule: Q01DX001 (ip), vehicle: saline): 95 % of control; T/C (dose: 200.0 mg/kg/injection, schedule: Q01DX009 (ip), vehicle: other): 157 % of control; T/C (dose: 200.0 mg/kg/injection, schedule: Q04DX002 (ip), vehicle: saline): 100 % of control; T/C (dose: 250.0 mg/kg/injection, schedule: Q04DX003 (ip), vehicle: water): 154 % of control; T/C (dose: 256.0 mg/kg/injection, schedule: Q01DX001 (ip), vehicle: saline): 90 % of control; T/C (dose: 256.0 mg/kg/injection, schedule: Q01DX001 (ip), vehicle: water): 118 % of control; T/C (dose: 256.0 mg/kg/injection, schedule: Q01DX009 (ip), vehicle: saline): 96 % of control; T/C (dose: 256.0 mg/kg/injection, schedule: Q01DX009 (ip), vehicle: water): 154 % of control; T/C (dose: 256.0 mg/kg/injection, schedule: Q01DX009 (oral), vehicle: water): 90 % of control; T/C (dose: 256.0 mg/kg/injection, schedule: Q01DX009 (sc), vehicle: water): 100 % of control; T/C (dose: 256.0 mg/kg/injection, schedule: Q03HX008 (ip), vehicle: saline): 120 % of control; T/C (dose: 256.0 mg/kg/injection, schedule: Q03HX016 (ip), vehicle: saline): 105 % of control; T/C (dose: 256.0 mg/kg/injection, schedule: Q03HX024 (ip), vehicle: saline): 95 % of control; T/C (dose: 256.0 mg/kg/injection, schedule: Q04DX003 (ip), vehicle: saline): 100 % of control; T/C (dose: 256.0 mg/kg/injection, schedule: Q04DX003 (ip), vehicle: water): 104 % of control; T/C (dose: 288.0 mg/kg/injection, schedule: Q01DX009 (ip), vehicle: water): 159 % of control; T/C (dose: 360.0 mg/kg/injection, schedule: Q01DX009 (ip), vehicle: water): 175 % of control; T/C (dose: 400.0 mg/kg/injection, schedule: Q01DX009 (ip), vehicle: other): 105 % of control; T/C (dose: 500.0 mg/kg/injection, schedule: Q01DX001 (ip), vehicle: water): 154 % of control; T/C (dose: 500.0 mg/kg/injection, schedule: Q04DX003 (ip), vehicle: water): 172 % of control; T/C (dose: 500.0 mg/kg/injection, schedule: Q08DX002 (ip), vehicle: water): 163 % of control; T/C (dose: 512.0 mg/kg/injection, schedule: Q01DX001 (ip), vehicle: saline): 100 % of control; T/C (dose: 512.0 mg/kg/injection, schedule: Q01DX001 (ip), vehicle: water): 118 % of control; T/C (dose: 512.0 mg/kg/injection, schedule: Q01DX009 (ip), vehicle: saline): 100 % of control; T/C (dose: 512.0 mg/kg/injection, schedule: Q01DX009 (ip), vehicle: water): 172 % of control; T/C (dose: 512.0 mg/kg/injection, schedule: Q01DX009 (oral), vehicle: water): 95 % of control; T/C (dose: 512.0 mg/kg/injection, schedule: Q01DX009 (sc), vehicle: water): 90 % of control; T/C (dose: 512.0 mg/kg/injection, schedule: Q04DX003 (ip), vehicle: saline): 90 % of control; T/C (dose: 512.0 mg/kg/injection, schedule: Q04DX003 (ip), vehicle: water): 100 % of control; T/C (dose: 600.0 mg/kg/injection, schedule: Q01DX009 (ip), vehicle: water): 163 % of control and 169 % of control; T/C (dose: 750.0 mg/kg/injection, schedule: Q01DX005 (ip), vehicle: water): 100 % of control; T/C (dose: 800.0 mg/kg/injection, schedule: Q01DX001 (ip), vehicle: saline): 108 % of control; T/C (dose: 800.0 mg/kg/injection, schedule: Q01DX009 (ip), vehicle: other): 99 % of control; T/C (dose: 1000.0 mg/kg/injection, schedule: Q01DX001 (ip), vehicle: water): 154 % of control; T/C (dose: 1000.0 mg/kg/injection, schedule: Q04DX003 (ip), vehicle: water): 195 % of control; T/C (dose: 1000.0 mg/kg/injection, schedule: Q08DX002 (ip), vehicle: water): 177 % of control; T/C (dose: 1024.0 mg/kg/injection, schedule: Q01DX001 (ip), vehicle: saline): 100 % of control; T/C (dose: 1024.0 mg/kg/injection, schedule: Q01DX001 (ip), vehicle: water): 95 % of control; T/C (dose: 1024.0 mg/kg/injection, schedule: Q01DX009 (ip), vehicle: saline): 160 % of control; T/C (dose: 1024.0 mg/kg/injection, schedule: Q01DX009 (oral), vehicle: water): 90 % of control; T/C (dose: 1024.0 mg/kg/injection, schedule: Q01DX009 (sc), vehicle: water): 90 % of control; T/C (dose: 1024.0 mg/kg/injection, schedule: Q04DX003 (ip), vehicle: saline): 110 % of control; T/C (dose: 1024.0 mg/kg/injection, schedule: Q04DX003 (ip), vehicle: water): 100 % of control; T/C (dose: 1024.0 mg/kg/injection, schedule: Q08DX002 (ip), vehicle: saline): 100 % of control; T/C (dose: 1024.0 mg/kg/injection, schedule: Q08DX002 (ip), vehicle: water): 95 % of control; T/C (dose: 1500.0 mg/kg/injection, schedule: Q01DX001 (ip), vehicle: water): 163 % of control; T/C (dose: 1500.0 mg/kg/injection, schedule: Q08DX002 (ip), vehicle: water): 181 % of control; T/C (dose: 2048.0 mg/kg/injection, schedule: Q01DX001 (ip), vehicle: saline): 120 % of control; T/C (dose: 2048.0 mg/kg/injection, schedule: Q01DX001 (ip), vehicle: water): 113 % of control; T/C (dose: 2048.0 mg/kg/injection, schedule: Q01DX009 (oral), vehicle: water): 90 % of control; T/C (dose: 2048.0 mg/kg/injection, schedule: Q08DX002 (ip), vehicle: saline): 105 % of control; T/C (dose: 2048.0 mg/kg/injection, schedule: Q08DX002 (ip), vehicle: water): 118 % of control
